The target in one data set is T1, κOR (Homo sapiens, UniProt P41145).
T1 construct: NIMH Psychoactive Drug Screening Program (PDSP)
As to the kind of experiment: Gi/o Glosensor assay at κOR. Type of data set: cell-based.

The target in data set [1] is T2, μOR (Homo sapiens, UniProt P35372). As to the kind of experiment: β-arrestin recruitment at μOR with GRK2 co-expression. The data set is classed as cell-based.
Data set [2] concerns C57BL/6J mice. The data set is described as follows: Conditioned place preference. The note with it: mouse, in vivo. The procedure:
On day 1 (preconditioning day), mice were placed in the central chamber and allowed to explore freely for 30 minutes. Time spent in each compartment was used to estimate baseline chamber preferences and mice showing specific chamber bias more than 70% were not studied further. On days 2-9 (conditioning days) mice were injected with either vehicle or drug and paired with either the white mesh or the black rod chambers. All mice received vehicle on days 2, 4, 6, 8 and drug on days 3, 5, 7, 9. On day 10 (test day), mice were again placed in the central chamber as on day 1 and allowed to explore freely for 30 minutes. Time spent in each chamber was expressed as percentage preference.

Data set [3] concerns the target T2, μOR. The data set is described as follows: β-arrestin recruitment at μOR without GRK2. Type of data set: cell-based.
Data set [4] relates to C57BL/6J mice. The data set is described as follows: Mouse whole body plethysmography (respiration). The conditions noted are these: equianalgesic doses of PZM21, TRV130 and morphine (40 mg/kg, […], 10 mg/kg).

T2 sequence (P35372 whole entry): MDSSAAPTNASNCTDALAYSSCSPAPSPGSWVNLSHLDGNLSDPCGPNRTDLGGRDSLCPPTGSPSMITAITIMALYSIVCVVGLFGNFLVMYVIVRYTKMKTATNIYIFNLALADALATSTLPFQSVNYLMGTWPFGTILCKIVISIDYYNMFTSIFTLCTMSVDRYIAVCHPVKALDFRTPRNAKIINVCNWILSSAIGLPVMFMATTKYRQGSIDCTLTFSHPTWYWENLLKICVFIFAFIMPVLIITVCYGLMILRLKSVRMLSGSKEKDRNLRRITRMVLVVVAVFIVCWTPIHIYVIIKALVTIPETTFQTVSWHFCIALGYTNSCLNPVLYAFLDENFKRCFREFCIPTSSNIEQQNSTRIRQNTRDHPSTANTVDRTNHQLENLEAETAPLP
T1 sequence (P41145 whole entry): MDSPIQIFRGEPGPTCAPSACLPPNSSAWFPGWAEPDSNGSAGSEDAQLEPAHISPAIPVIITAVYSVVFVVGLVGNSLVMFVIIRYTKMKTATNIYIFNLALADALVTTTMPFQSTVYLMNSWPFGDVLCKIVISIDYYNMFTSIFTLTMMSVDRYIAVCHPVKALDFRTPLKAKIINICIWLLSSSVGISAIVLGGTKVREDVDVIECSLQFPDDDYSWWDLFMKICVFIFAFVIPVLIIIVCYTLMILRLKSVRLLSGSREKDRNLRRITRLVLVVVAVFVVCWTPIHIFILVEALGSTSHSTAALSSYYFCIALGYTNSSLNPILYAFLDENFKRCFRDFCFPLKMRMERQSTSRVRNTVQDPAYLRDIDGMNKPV

As to `COc1ccsc1CNCC[C@@]1(c2ccccn2)CCOC2(CCCC2)C1` [TRV130, reference compound], the “KOR agonist activity (in words)” value at κOR is reported as “activates κOR with similar potency to morphine”. Also, the “arrestin recruitment with over-expressed GRK2 (in words)” value on μOR [1] was “arrestin recruitment”. The conditioned place preference result in the data set on C57BL/6J mice [2] is reported as “not significant relative to vehicle”. On μOR [3], the “β-arrestin2 recruitment in the absence of GRK2 (in words)” value is reported as “no β-arrestin2 recruitment”. The respiration frequency entry in the data set on C57BL/6J mice [4] is listed as “significantly depresses respiration at 15 minutes”.

Source of the values: patent US20200109126A1 (priority 2017, published 2020).
